According to patent US7112600B1, “Fused-ring compounds and use thereof as drugs” (Japan Tobacco Inc., priority 1999, dated 2006):
Structures can show the parent of a compound that is named as a salt.

Legend:
HCV polymerase = molecular target: T1, HCV polymerase (Hepatitis C virus genotype 1b, UniProt P26663); assay: biochemical; conditions: read-out: HCV polymerase inhibitory activity IC50
T1 construct: a region encoding NS5B (591 amino acids; J Virol 1991 Mar, 65(3), 1105-13) was amplified by PCR; 6 His (N); made in house; host or cells: Escherichia coli
Excerpt: The evaluation of the HCV polymerase inhibitory activity of the compound of the present invention is explained in the following. This polymerase is an enzyme coded for by the non-structural protein region called NS5B on the RNA gene of HCV (EMBO J., 15:12-22, 1996).
i) Preparation of enzyme (HCV polymerase)
Using, as a template, a cDNA clone corresponding to the full length RNA gene of HCV BK strain obtained from the blood of a patient with hepatitis C, a region encoding NS5B (591 amino acids; J Virol 1991 Mar, 65(3), 1105-13) was amplified by PCR. The objective gene was prepared by adding a 6 His tag {base pair encoding 6 continuous histidine (His)} to the 5′ end thereof and transformed to Escherichia coli. The Escherichia coli capable of producing the objective protein was cultured. The obtained cells were suspended in a buffer solution containing a surfactant and crushed in a microfluidizer.
ii) Synthesis of substrate RNA
Using a synthetic primer designed based on the sequence of HCV genomic 3′ untranslated region, a DNA fragment (148 bp) containing polyU and 3′X sequence was entirely synthesized and cloned into plasmid pBluescript SK II(+) (Stratagene). The cDNA encoding full length NSSB, which was prepared in i) above, was digested with restriction enzyme KpnI to give a cDNA fragment containing the nucleotide sequence of from the restriction enzyme cleavage site to the termination codon. This cDNA fragment was inserted into the upstream of 3′ untranslated region of the DNA in pBluescript SK II(+) and ligated. The about 450 bp inserted DNA sequence was used as a template in the preparation of substrate RNA.
RNA was synthesized (37° C., 3 hr) by run-off method using this purified DNA as a template, a promoter of pBluescript SK II(+), MEGAscript RNA synthesis kit (Ambion) and T7 RNA polymerase. DNaseI was added and the mixture was incubated for 1 hr. The template DNA was removed by decomposition to give a crude RNA product.
This RNA was applied to formaldehyde denaturation agarose gel electrophoresis to confirm the quality thereof and preserved at −80° C.
iii) Assay of enzyme (HCV polymerase) inhibitory activity
A test substance (compound of the present invention) and a reaction mixture (30 μl) having the following composition were reacted at 25° C. for 90 min.
10% Trichloroacetic acid at 4° C. and 1% sodium pyrophosphate solution (150 μl) were added to this reaction mixture to stop the reaction. The reaction mixture was left standing in ice for 15 min to insolubilize RNA. This RNA was trapped on a glass filter (Whatman GF/C and the like) upon filtration by suction. This filter was washed with a solution containing 1% trichloroacetic acid and 0.1% sodium pyrophosphate, washed with 90% ethanol and is dried. A liquid scintillation cocktail (Packard) was added and the radioactivity of RNA synthesized by the enzyme reaction was measured on a liquid scintillation counter.
The HCV polymerase inhibitory activity (IC50) of the compound of the present invention was calculated from the values of radioactivity of the enzyme reaction with and without the test substance.
Reaction mixture : HCV polymerase (5 μg/ml) obtained in i), substrate RNA (10 μg/ml) obtained in ii), ATP (50 μM), GTP (50 μM), CTP (50 μM), UTP (2 μM), [5,6-^3H]UTP (46 Ci/mmol (Amersham), […]) 20 mM Tris-HCl (pH 7.5), EDTA (1 mM), MgCl2 (5 mM), NaCl (50 mM), DTT (1 mM), BSA (0.01%)

HCV type 1b = assay: inhibitory activity on HCV type 1b; conditions: statement in words, no method described
[1] = blood concentration when administered to an animal; format: in vivo; conditions: when administered as a pharmaceutical agent to an animal; statement in words
HCV type 1a = assay: inhibitory activity on HCV type 1a; conditions: statement in words, no method described

T1 sequence (P26663 2420-3010): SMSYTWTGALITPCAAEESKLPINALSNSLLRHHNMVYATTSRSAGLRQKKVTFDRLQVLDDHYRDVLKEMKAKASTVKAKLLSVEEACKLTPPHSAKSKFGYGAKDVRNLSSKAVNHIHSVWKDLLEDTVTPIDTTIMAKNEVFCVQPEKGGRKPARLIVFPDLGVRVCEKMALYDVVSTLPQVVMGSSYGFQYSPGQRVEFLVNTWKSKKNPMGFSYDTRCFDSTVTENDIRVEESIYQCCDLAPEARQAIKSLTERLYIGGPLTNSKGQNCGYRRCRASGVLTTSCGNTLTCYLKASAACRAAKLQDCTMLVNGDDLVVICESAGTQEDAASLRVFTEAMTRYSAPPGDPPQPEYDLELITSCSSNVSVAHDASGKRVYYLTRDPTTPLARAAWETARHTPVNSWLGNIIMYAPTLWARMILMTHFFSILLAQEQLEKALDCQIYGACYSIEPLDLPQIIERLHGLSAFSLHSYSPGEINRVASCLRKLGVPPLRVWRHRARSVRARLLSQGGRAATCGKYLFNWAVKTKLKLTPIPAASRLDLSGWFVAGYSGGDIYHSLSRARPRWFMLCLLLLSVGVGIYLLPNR

Structure (SMILES)	IC50 (HCV polymerase) [nM]	also measured
Cl.O=C(O)c1ccc2c(c1)nc(-c1ccc(OCc3cc(N4CCCC4=O)ccc3-c3ccc(Cl)cc3)cc1F)n2C1CCCCC1 [2-{4-[2-(4-chlorophenyl)-5-(2-oxopyrrolidin-1-yl)benzyloxy]-2-fluorophenyl}-1-cyclohexylbenzimidazole-5-carboxylic acid hydrochloride]	–	inhibitory activity on HCV type 1b (HCV type 1b): high inhibitory activity; blood concentration [1]: high blood concentration; inhibitory activity on HCV type 1a (HCV type 1a): high inhibitory activity
O=C(O)c1ccc2c(c1)nc(-c1ccc(OCCN3c4ccccc4CCc4ccccc43)cc1)n2C1CCCCC1 [Example 116, 1-cyclohexyl-2-{4-[2-(10,11-dihydro-5H-dibenzo[b,f]azepin-5-yl)ethoxy]phenyl}benzimidazole-5-carboxylic acid]	370	–
COc1cc(CCOc2ccc(-c3nc4cc(C(=O)O)ccc4n3C3CCCCC3)cc2)cc(OC)c1OC [Example 101, 1-cyclohexyl-2-{4-[2-(3,4,5-trimethoxyphenyl)ethoxy]phenyl}-benzimidazole-5-carboxylic acid]	140	–
O=C(O)c1ccc2c(c1)nc(-c1ccc(Oc3cccc(Oc4ccccc4)c3)cc1)n2C1CCCCC1 [Example 129, 1-cyclohexyl-2-[4-(3-phenoxyphenoxy)phenyl]benzimidazole-5-carboxylic acid]	120	–
O=C(O)c1ccc2c(c1)nc(-c1ccc(Oc3cc(-c4cccc(Cl)c4)ncn3)cc1)n2C1CCCCC1 [Example 240, 2-{4-[4-(3-chlorophenyl)-6-pyrimidinyloxy]phenyl}-1-cyclohexylbenzimidazole-5-carboxylic acid]	55	–

Further compounds by falling IC50 (HCV polymerase), results first:

IC50 (HCV polymerase) [nM]	Structure (SMILES)	also measured
52	COC(=O)c1ccc2c(c1)nc(-c1ccc(OCc3cc(C(=O)O)ccc3-c3ccc(Cl)cc3)cc1F)n2C1CCCCC1 [Example 281, methyl 2-{4-[5-carboxy-2-(4-chlorophenyl)benzyloxy]-2-fluorophenyl}-1-cyclohexylbenzimidazole-5-carboxylate hydrochloride]	–
45	O=C(O)c1ccc2c(c1)nc(-c1ccc(OC(c3cccnc3)c3cccnc3)cc1F)n2C1CCCCC1 [Example 300, 2-{4-[bis(3-pyridyl)methoxy]-2-fluorophenyl}-1-cyclohexylbenzimidazole-5-carboxylic acid]	–
11	CN(C)C(=O)c1ccc(-c2ccc(Cl)cc2)c(COc2ccc(-c3nc4cc(-c5nnn[nH]5)ccc4n3C3CCCCC3)c(F)c2)c1 [Example 434, 2-{4-[2-(4-chlorophenyl)-5-(dimethylcarbamoyl)benzyloxy]-2-fluorophenyl}-1-cyclohexyl-5-tetrazol-5-ylbenzimidazole]	–
